Source: patent US20220105051A1, “COMPOUNDS FOR INCREASING MHC-I EXPRESSION AND MODULATING HISTONE DEACETYLASE ACTIVITY” (Cava Healthcare Inc., priority 2019, published 2022)

System: A9 cells
Test: Proteome Profiler Mouse XL cytokine array on A9 cells
Type: cell-based, murine
Settings: 0.014 mg/ml (0.064 umol) vs DMSO
Description: Methods primarily used: Fluorescence Activated Cell Sorting (FACS), western blot, RealTime-PCR (RT-PCR), Proteome Profiler Mouse Cytokine Array Kit (Panel A).
Upon addition of 0.014 mg/ml (0.064 umol) of Curcuphenol, there was a change in the cytokine production of A9 cells, relative to that of cells treated with only vehicle DMSO. This treatment was done in 2 mL of DMEM media, at an initial seeding density of 1×10^6 A9 cells, and treatment with Curcuphenol in DMSO vehicle or DMSO vehicle was done 24 hours after seeding A9 cells. A9 cells are murine metastatic epithelial carcinoma cells. Cytokine change was seen using the Proteome Profiler Mouse XL cytokine array (R&D Systems, ARY028).

`CC(C)=CCC[C@H](C)c1ccc(C)cc1O` [Curcuphenol, curcuphenol] was tested, and the Adiponectin/Acrp30 production was “Decrease”, the Amphiregulin production was “Decrease” and the Angiopoietin-1 production was “Decrease”. The Angiopoietin-2 production was “Increase”, the “Angiopoietin-like 3 production” value was “Increase” and the CCL2/JE/MCP-1 production was “Decrease”. For the same compound, the CCL5/RANTES production was “Decrease”, the CCL6/C10 production was “Decrease” and the CCL11/Eotaxin production was “Decrease”. For the same compound, the CCL12/MCP-5 production was “Increase”, the CCL17/TARC production was “Decrease” and the CCL19/MIP-3beta production was “Increase”. The CCL22/MDC production was “Decrease”, the CD40/TNFRSF5 production was “Increase” and the CD160 production was “Decrease”. The CX3CL1/Fractalkine production was “Increase”, the CXCL9/MIG production was “Decrease” and the CXCL10/IP-10 production was “Decrease”. The CXCL11/I-TAC production was “Decrease”, the CXCL13/BLC/BCA-1 production was “Increase” and the CXCL16 production was “Increase”. The Chemerin production was “Decrease”, the “Coagulation Factor III/Tissue Factor production” value was “Increase” and the “Cystatin C production” value was “Increase”. For the same compound, the DGF-BB production was “Increase”, the E-Selectin/CD62-E production was “Decrease” and the Endostatin production was “Decrease”. For the same compound, the FGF-21 production was “Increase”, the “Flt-3 Ligand production” value was “Decrease” and the G-CSF production was “Increase”. The GDF-15 production was “Increase”, the “Gas 6 production” value was “Increase” and the IFN-gamma production was “Increase”. The IGFBP-2 production was “Decrease”, the IGFBP-3 production was “Decrease” and the IGFBP-6 production was “Decrease”. The IL-1alpha/IL-1F1 production was “Increase”, the IL-1beta/IL-1F2 production was “Increase” and the IL-1ra/IL-1F3 production was “Increase”. For the same compound, the IL-6 production was “Decrease”, the IL-7 production was “Decrease” and the IL-10 production was “Decrease”. For the same compound, the IL-11 production was “Decrease”, the “IL-12 p40 production” value was “Decrease” and the IL-13 production was “Increase”. The IL-15 production was “Increase”, the IL-28A/B production was “Increase” and the IL-33 production was “Increase”. The LIX production was “Increase”, the Leptin production was “No change” and the M-CSF production was “Decrease”. The MMP-2 production was “Decrease”, the MMP-3 production was “Decrease” and the Myeloperoxidase production was “Increase”. The “Osteopontin (OPN) production” value was “Increase”, the P-Selectin/CD62P production was “Decrease” and the “Pentraxin 2/SAP production” value was “Decrease”. For the same compound, the “Pentraxin 3/TSG-14 production” value was “Increase”, the Periostin/OSF-2 production was “No change” and the Pref-1/DLK-1/FA1 production was “Decrease”. For the same compound, the Proliferin production was “Increase”, the “Proprotein Convertase 9/PCSK9 production” value was “No change” and the “Serpin E1/PAI-1 production” value was “Increase”. For the same compound, the “Serpin F1/PEDF production” value was “Increase”, the TIM-1/KIM-1/HAVCR production was “Increase” and the TNF-alpha production was “Decrease”. For the same compound, the VCAM-1/CD106 production was “No change”, the VEGF production was “Increase” and the WISP-1/CCN4 production was “Decrease”.
